Here are results for 20 compounds from patent US10975077B2 (Novira Therapeutics, Inc., priority 2016, dated 2021).

pEC50: −log10 of the molar value.

For the first assay, the system named is HBV (encapsidated HBV DNA, HepG2.2.15 cells). The assay is described as follows: HBV replication inhibition assay, BDNA assay in HepG2.2.15 cells. In kind it is cell-based. The note with it: Activity in BDNA-assay. Here is the method:
HBV replication inhibition by the disclosed compounds were determined in cells infected or transfected with HBV, or cells with stably integrated HBV, such as HepG2.2.15 cells (Sells et al. 1987). In this example, HepG2.2.15 cells were maintained in cell culture medium containing 10% fetal bovine serum (FBS), Geneticin, L-glutamine, penicillin and streptomycin. HepG2.2.15 cells were seeded in 96-well plates at a density of 40,000 cells/well and were treated with serially diluted compounds at a final DMSO concentration of 0.5% either alone or in combination by adding drugs in a checker box format. Cells were incubated with compounds for three days, after which medium was removed and fresh medium containing compounds was added to cells and incubated for another three days. At day 6, supernatant was removed and treated with DNase at 37° C. for 60 minutes, followed by enzyme inactivation at 75° C. for 15 minutes. Encapsidated HBV DNA was released from the virions and covalently linked HBV polymerase by incubating in lysis buffer (Affymetrix QS0010) containing 2.5 μg proteinase K at 50° C. for 40 minutes. HBV DNA was denatured by addition of 0.2 M NaOH and detected using a branched DNA (BDNA) QuantiGene assay kit according to manufacturer recommendation (Affymetrix). HBV DNA levels were also quantified using qPCR, based on amplification of encapsidated HBV DNA extraction with QuickExtraction Solution (Epicentre Biotechnologies) and amplification of HBV DNA using HBV specific PCR probes that can hybridize to HBV DNA and a fluorescently labeled probe for quantitation. In addition, cell viability of HepG2.2.15 cells incubated with test compounds alone or in combination was determined by using CellTitre-Glo reagent according to the manufacturer protocol (Promega). The mean background signal from wells containing only culture medium was subtracted from all other samples, and percent inhibition at each compound concentration was calculated by normalizing to signals from HepG2.2.15 cells treated with 0.5% DMSO using equation E1. % inhibition=(DMSOave−Xi)/DMSOave×100% E1: where DMSOave is the mean signal calculated from the wells that were treated with DMSO control (0% inhibition control) and Xi is the signal measured from the individual wells. EC50 values, effective concentrations that achieved 50% inhibitory effect, were determined by non-linear fitting using Graphpad Prism software (San Diego, Calif.) and equation E2: Y=Y min+(Y max −Y min)/(1+10(Log EC50−X)×HillSlope) E2: […]
where Y represents percent inhibition values and X represents the logarithm of compound concentrations.
Selected disclosed compounds were assayed in the HBV replication assay (BDNA assay), as described above and a representative group of these active compounds is shown in Table 6.
As to `C=CC(O)C1CN(C)C(=O)c2c3c(nn2C1)CC(C)N(C(=O)Nc1ccc(F)c(C(F)(F)F)c1)C3` [Compound 122_D1, (3R,8S*)—N-(4-fluoro-3-(trifluoromethyl)phenyl)-8-((R*)-1-hydroxyallyl)-3,10-dimethyl-11-oxo-1,3,4,7,8,9,10,11-octahydro-2H-pyrido[4′,3′:3,4]pyrazolo[1,5-a][1,4]diazepine-2-carboxamide], the negative-log EC50 (pEC50) (commonly −log10 of the EC50, conventionally taken in molar units) was 7.00 to 9.00.
On the same count and under the same terms, with `CCC(O)C1CN(C)C(=O)c2c3c(nn2C1)CCN(C(=O)Nc1ccc(F)c(C(F)(F)F)c1)C3` (single isomer, unassigned) [Compound 099_E2, (S*)—N-(4-fluoro-3-(trifluoromethyl)phenyl)-8-((R*)-1-hydroxypropyl)-10-methyl-11-oxo-1,3,4,7,8,9,10,11-octahydro-2H-pyrido[4′,3′:3,4]pyrazolo[1,5-a][1,4]diazepine-2-carboxamide] the figure was 6.30 to 7.00; with `C[C@@H]1Cc2nn3c(c2CN1C(=O)Nc1ccc(F)c(C#N)c1)C(=O)N(C)CC(F)C3` (single isomer, unassigned) [Compound 137_D2, (3R,8S*)-N-(3-Cyano-4-fluorophenyl)-8-fluoro-3,10-dimethyl-11-oxo-1,3,4,7,8,9,10,11-octahydro-2H-pyrido[4′,3′:3,4]pyrazolo[1,5-a][1,4]diazepine-2-carboxamide], 7.00 to 9.00.
On the same count and under the same terms, then `CCC(O)C1CN(C)C(=O)c2c3c(nn2C1)CCN(C(=O)Nc1ccc(F)c(C#N)c1)C3` (single isomer, unassigned) [Compound 097_E3, (S*)—N-(3-cyano-4-fluorophenyl)-8-((S*)-1-hydroxypropyl)-10-methyl-11-oxo-1,3,4,7,8,9,10,11-octahydro-2H-pyrido[4′,3′: 3,4]pyrazolo[1,5-a][1,4]diazepine-2-carboxamide], with 6.30 to 7.00; and `C[C@@H]1Cc2nn3c(c2CN1C(=O)Nc1ccc(F)c(Br)c1)C(=O)N(C)CC(CO)C3` (single isomer, unassigned) [Compound 086_D2, (3R,8R*)—N-(3-bromo-4-fluorophenyl)-8-(hydroxymethyl)-3,10-dimethyl-11-oxo-1,3,4,7,8,9,10,11-octahydro-2H-pyrido[4′,3′:3,4]pyrazolo[1,5-a][1,4]diazepine-2-carboxamide], with 7.00 to 9.00; and `CCC(O)C1CN(C)C(=O)c2c3c(nn2C1)CCN(C(=O)Nc1ccc(F)c(C#N)c1)C3` (single isomer, unassigned) [Compound 097_E1, (R*)—N-(3-cyano-4-fluorophenyl)-8-((S*)-1-hydroxypropyl)-10-methyl-11-oxo-1,3,4,7,8,9,10,11-octahydro-2H-pyrido[4′,3′:3,4]pyrazolo[1,5-a][1,4]diazepine-2-carboxamide], with 7.00 to 9.00.
The same measure, in the same setting: with `C[C@@H]1Cc2nn3c(c2CN1C(=O)Nc1ccc(F)c(Br)c1F)C(=O)N(C)CC(CO)C3` (single isomer, unassigned) [Compound 084_D2, (3R,8R*)—N-(3-bromo-2,4-difluorophenyl)-8-(hydroxymethyl)-3,10-dimethyl-11-oxo-1,3,4,7,8,9,10,11-octahydro-2H-pyrido[4′,3′:3,4]pyrazolo[1,5-a][1,4]diazepine-2-carboxamide] the figure was 7.00 to 9.00.

The same assay, now with this note: Hepatitis B virus, HepG2.2.15, Activity in BDNA-assay.
For the compound `CN1CC(CN2CCC(F)(F)C2)Cn2nc3c(c2C1=O)CN(C(=O)Nc1ccc(F)c(Cl)c1)CC3` (centres unmarked) [Compound 066, N-(3-chloro-4-fluorophenyl)-8-((3,3-difluoropyrrolidin-1-yl)methyl)-10-methyl-11-oxo-1,3,4,7,8,9,10,11-octahydro-2H-pyrido[4′,3′:3,4]pyrazolo[1,5-a][1,4]diazepine-2-carboxamide], the pEC50 was 7.00 to 9.00.
The same measure, in the same setting: then `CN(C)C(=O)C1CCn2nc3c(c2C(=O)N1C)CN(C(=O)Nc1ccc(F)c(Cl)c1)CC3` (centres unmarked) [Compound 059, N2-(3-chloro-4-fluorophenyl)-N9,N9,10-trimethyl-11-oxo-1,3,4,7,8,9,10,11-octahydro-2H-pyrido[4′,3′:3,4]pyrazolo[1,5-a][1,4]diazepine-2,9-dicarboxamide], with 6.30 to 7.00; and `CN1CC(CNCC(F)F)Cn2nc3c(c2C1=O)CN(C(=O)Nc1cc(Cl)c(F)cc1F)CC3` (single isomer, unassigned) [Compound 126_E1, (R*)—N-(5-chloro-2,4-difluorophenyl)-8-(((2,2-difluoroethyl)amino)methyl)-10-methyl-11-oxo-1,3,4,7,8,9,10,11-octahydro-2H-pyrido[4′,3′:3,4]pyrazolo[1,5-a][1,4]diazepine-2-carboxamide], with 6.30 to 7.00.
On the same count and under the same terms, then `COC(=O)c1cn2nc3c(c2c(=O)n1C)CN(C(=O)Nc1ccc(F)c(Cl)c1)CC3` [Compound 040, methyl 2-((3-chloro-4-fluorophenyl)carbamoyl)-9-methyl-10-oxo-1,2,3,4,9,10-hexahydropyrido[4′,3′:3,4]pyrazolo[1,5-a]pyrazine-8-carboxylate], with 6.30 to 7.00; and `C[C@@H]1Cc2nn3c(c2CN1C(=O)Nc1ccc(F)c(C#N)c1)C(=O)N(C)CC(CO)C3` (single isomer, unassigned) [Compound 087_D1, (3R,8S*)—N-(3-cyano-4-fluorophenyl)-8-(hydroxymethyl)-3,10-dimethyl-11-oxo-1,3,4,7,8,9,10,11-octahydro-2H-pyrido[4′,3′:3,4]pyrazolo[1,5-a][1,4]diazepine-2-carboxamide], with 7.00 to 9.00.
Still for that read-out and setting: with `C[C@@H]1Cc2nn3c(c2CN1C(=O)Nc1ccc(F)c(C#N)c1)C(=O)N(C)CC(C)(C)C3` [Compound 139, (R)-N-(3-cyano-4-fluorophenyl)-3,8,8,10-tetramethyl-11-oxo-1,3,4,7,8,9,10,11-octahydro-2H-pyrido[4′,3′:3,4]pyrazolo[1,5-a][1,4]diazepine-2-carboxamide] the figure was 7.00 to 9.00.
Consider `CN1CC(CNCC(F)F)Cn2nc3c(c2C1=O)CN(C(=O)Nc1ccc(F)c(C#N)c1)CC3` (single isomer, unassigned) [Compound 118_E2, (S*)—N-(3-cyano-4-fluorophenyl)-8-(((2,2-difluoroethyl)amino)methyl)-10-methyl-11-oxo-1,3,4,7,8,9,10,11-octahydro-2H-pyrido[4′,3′:3,4]pyrazolo[1,5-a][1,4]diazepine-2-carboxamide], for which the pEC50 was 7.00 to 9.00.
Same read-out and setting: with `C[C@@H]1Cc2nn3c(c2CN1C(=O)Nc1ccc(F)c(Br)c1)C(=O)N(CC(F)F)CCC3` [Compound 074, (R)—N-(3-bromo-4-fluorophenyl)-10-(2,2-difluoroethyl)-3-methyl-11-oxo-1,3,4,7,8,9,10,11-octahydro-2H-pyrido[4′,3′:3,4]pyrazolo[1,5-a][1,4]diazepine-2-carboxamide] the figure was 7.00 to 9.00; with `CN1CC(N2CCCCC2)Cn2nc3c(c2C1=O)CN(C(=O)Nc1ccc(F)c(Cl)c1)CC3` (centres unmarked) [Compound 055, N-(3-chloro-4-fluorophenyl)-10-methyl-11-oxo-8-(piperidin-1-yl)-1,3,4,7,8,9,10,11-octahydro-2H-pyrido[4′,3′:3,4]pyrazolo[1,5-a][1,4]diazepine-2-carboxamide], 6.30 to 7.00; with `CN1CC(N2CCOCC2)Cn2nc3c(c2C1=O)CN(C(=O)Nc1ccc(F)c(Cl)c1)CC3` (centres unmarked) [Compound 021, N-(3-chloro-4-fluorophenyl)-10-methyl-8-morpholino-11-oxo-1,3,4,7,8,9,10,11-octahydro-2H-pyrido[4′,3′:3,4]pyrazolo[1,5-a][1,4]diazepine-2-carboxamide], 6.30 to 7.00.
The same measure, in the same setting: then `COC(=O)C1CCn2nc3c(c2C(=O)N1C)CN(C(=O)Nc1ccc(F)c(Cl)c1)CC3` (centres unmarked) [Compound 057, methyl 2-((3-chloro-4-fluorophenyl)carbamoyl)-10-methyl-11-oxo-1,3,4,7,8,9,10,11-octahydro-2H-pyrido[4′,3′:3,4]pyrazolo[1,5-a][1,4]diazepine-9-carboxylate], with 6.30 to 7.00; and `C[C@@H]1Cc2nn3c(c2CN1C(=O)Nc1cc(Br)c(F)cc1F)C(=O)N(C)CC(CO)C3` (single isomer, unassigned) [Compound 085_D1, (3R,8 S*)—N-(5-bromo-2,4-difluorophenyl)-8-(hydroxymethyl)-3,10-dimethyl-11-oxo-1,3,4,7,8,9,10,11-octahydro-2H-pyrido[4′,3′:3,4]pyrazolo[1,5-a][1,4]diazepine-2-carboxamide], with 7.00 to 9.00.
Same read-out and setting: then `Cn1c(CO)cn2nc3c(c2c1=O)CN(C(=O)Nc1ccc(F)c(Cl)c1)CC3` [Compound 041, N-(3-chloro-4-fluorophenyl)-8-(hydroxymethyl)-9-methyl-10-oxo-3,4,9,10-tetrahydropyrido[4′,3′:3,4]pyrazolo[1,5-a]pyrazine-2 (1H)-carboxamide], with 7.00 to 9.00.
